Results from patent publication US20230228744A1, “DRY EYE DISEASE BIOMARKERS AND THEIR USE FOR TREATMENT” (Aldeyra Therapeutics, Inc., priority 2020, published 2023).

Key:
Format in all cases: in vivo, human
dry eye disease patients = experiment: Phase 3 clinical trial (RENEW-Part 1), VAS ocular dryness score over 12-week chronic treatment; conditions: 0.25% reproxalap, 12-week treatment, as early as one week after treatment initiation
Text: Treatment Difference of induction-maintenance dosing, defined as the difference between the changes from baseline for the evaluated drug vs. vehicle (LS Mean Difference ±95% CI). Ocular Dryness Score co-primary endpoint assessed in pre-specified patient population having an OD4S dryness baseline score of ≥3 (N=170). […] […] Source: Reproxalap RENEW-Part 1 clinical trial results and TRANQUILITY Run-In Cohort initial results. VAS=Visual Analog Scale; OD4S=Ocular Discomfort & 4-Symptom; CAC=Conjunctival Allergen Challenge; MMRM=Mixed Effect Model Repeated Measures.

patients = experiment: Overall clinical safety experience of topical ocular reproxalap
[1] = tested on: subjects with dry eye disease; experiment: Phase 2/3 (TRANQUILITY) run-in cohort, dry eye signs and symptoms (environmental dosing and dry eye chamber)
Protocol: Changes over 24 hours after the first dose on Day 1 and changes over 90 minutes in the CAE will be assessed via mixed effect model for repeated measures (MMRM) of change from baseline (pre-dose Day 1), with baseline score as a covariate, and time and test article group as factors. For assessments that include both eyes, eye will be added as a factor.
Schirmer's Test will be assessed via MMRM of change from baseline (screening), with baseline score as a covariate, and pre/post dose, eye, and test article group as factors.
This study is a Phase 2/3, multi-center, randomized, double-masked, parallel design, vehicle-controlled trial designed to evaluate the efficacy and safety of 0.25% Reproxalap Ophthalmic Solution compared to vehicle in subjects with dry eye disease. Approximately twenty subjects will be enrolled in the Initial Cohort, and approximately 300 subjects will be enrolled in the Main Cohort. Male and female subjects at least 18 years of age with a subject-reported history of dry eye disease in both eyes and meeting all other eligibility criteria will be randomized to receive reproxalap or vehicle in a 1:1 ratio (approximately 150 subjects in each treatment group).
This study uses a challenge-model of dry eye disease known as a “dry eye chamber.” Challenge-model trials utilizing a controlled chamber are an FDA accepted design for pivotal endpoints. See, for example, FDA published “Dry Eye: Developing Drugs for Treatment” draft guidance; December 2020.
Dry eye chambers control relative humidity, temperature, airflow, and visual tasking in order to stress the ocular surface. Chambers simulate a “bad day” scenario in the life of a dry eye disease sufferer. Trial designs utilizing chambers are able to confirm the utility of drugs with rapid onset of action during an acute ocular surface challenge.
Secondary Endpoints: • Visual analog scale eye dryness score assessed over 24 hours after first dose on Day 1, and over 90 minutes in CAE® (Key Secondary Symptom Endpoint) • Ora Calibra® Ocular Discomfort Scale assessed over 24 hours after first dose on Day 1, and over 90 minutes in CAE® • Ocular Discomfort & 4-Symptom Questionnaire assessed over 24 hours after first dose on Day 1, and before and after CAE® • Ora Calibra® Conjunctival Allergen Challenge Ocular Itching Scale assessed over 24 hours after first dose on Day 1, and before and after CAE® • Schirmer's Test change from baseline before and after the final dose on Day 1 • Change in tear RASP levels before and after Dose 1 and 2 on Day 1 and Dose 3 on Day 2. Conjunctival redness over 24 hours after first dose on Day 1.
Visit 1 (Day −14 −16/+2, Screening) • Informed Consent and HIPAA • Demographics (e.g. gender, date of birth, race, ethnicity) • Medical/Medication & Ocular History • Urine Pregnancy Test (as needed) • Symptom Questionnaires: • a. Ocular Discomfort & 4-Symptom Questionnaire • b. Ora Calibra® Ocular Discomfort Scale • c. Ocular Dryness Visual Analog Scale • d. Ora Calibra® Conjunctival Allergen Challenge Ocular Itching Scale • Visual Acuity (ETDRS) • Slit Lamp Biomicroscopy with Conjunctival Redness assessment • Fluorescein Staining using the Ora Calibra® Corneal and Conjunctival Staining Scale • Inclusion/Exclusion Criteria Review • In-Office Vehicle Instillation by trained site staff (within 10 minutes prior to CAE® entry) • CAE® Exposure (90 minutes, vehicle administration at 45 minutes) with: • a. Ocular Dryness Visual Analog Scale every 5 minutes • b. Ora Calibra® Ocular Discomfort Scale every 5 minutes • c. Conjunctival Redness Photography at 0, 5, 10, 15, 20, 30, 45 (before 45-minute dose), 50, 55, 60, 65, 75, 90 minutes (+/−2 minutes) via digital photography • Slit Lamp Biomicroscopy with Conjunctival Redness assessment • Schirmer Test • Intraocular Pressure • Dilated Exam • Schedule for Visit 2 […]

[2] = Day 1, 24 hours of QID dosing, N = 12, vehicle +0.1, P 0.006

## CC(C)(O)c1nc2ccc(Cl)cc2cc1N [reproxalap, Reproxalap]
Dry eye disease patients
  symptom improvements over vehicle (VAS ocular dryness score and multiple symptoms): statistically significant symptom improvements
patients; over 1,100 patients
  most commonly reported adverse event in clinical trials: mild instillation site irritation
patients; studied in over 1,100 patients
  observed safety concerns: no observed safety concerns
[1]; [2]
  Change From Baseline, OD4S: Dryness (0-5): −1.2
  Change From Baseline, OD4S: Grittiness (0-5): −1.1
[1]; Day 1, 24 hours of QID dosing, N = 12, vehicle +0.4, P 0.003
  Change From Baseline, OD4S: Discomfort (0-5): −0.7
[1]; Day 1, 24 hours of QID dosing, N = 12, vehicle +0.4, P 0.07
  Change From Baseline, Ocular Discomfort Scale (0-4): −0.7
[1]; Day 1, 24 hours of QID dosing, N = 12, vehicle +0.4, P 0.23
  Change From Baseline, OD4S: Sting (0-5): −0.1
[1]; Day 1, 24 hours of QID dosing, N = 12, vehicle +0.8, P 0.07
  Change From Baseline, OD4S: Burn (0-5): −0.1
[1]; Day 1, improvement after a single dose, N = 12, vehicle +1.3, P 0.30
  Change From Baseline, Schirmer's Test: +3.4 mm
[1]; after environmental dosing, Day 1, 24 hours of QID dosing, 0.25% reproxalap, N = 12, vehicle +2, P 0.003
  Change From Baseline, VAS Dryness (0-100): −26
[1]; dry eye chamber
  onset of acute improvements in ocular symptoms and objective sign after administration: within minutes
[1]; dry eye chamber, run-in cohort, p<0.0001
  Ocular Discomfort Score vs vehicle: statistically significant improvement over vehicle
[1]; dry eye chamber, run-in cohort, p=0.001
  VAS Ocular Dryness vs vehicle: statistically significant improvement over vehicle
[1]; dry eye chamber, run-in cohort, p=0.03
  ocular redness vs vehicle: statistically significant improvement over vehicle
